Test results from US8426342B2, “Method for weed control in lawn” (priority 2008, dated 2013).

Experiments:
[1] = tested on: Digitaria sanguinalis; test: Effectivity testing against weed plants ex. 5.3, in bermuda grass turf, Abbott %; format: in vivo
Source text: (§1) A co-formulation containing a mixture compounds no. […] Granules were applied with a shaker can.
(§2) Location: Sports turf, North Carolina, USA
(§3) Plot size: 1.4 m^2 and 3 replicates per treatment
(§4) Application timing: 27 Mar. 2007, spring application, early post for the weed
(§5) Effectivity was rated in percent (%) herbicidal effect compared with untreated control according to the method of Abbott mentioned above (see 5.1). 100% efficacy means full control; 0% efficacy means no control of the weed; all ratings above 80% are usually acceptable.
(§6) The application and evaluation were performed as described in example 5.2 with the following difference:
(§7) Turf grass species: Cynodon dactylon, variety (bermuda grass)
(§8) Weed species: Digitaria sanguinalis, Poa annua

[2] = tested on: Poa annua; test: as above; format: in vivo; details: 210 DAT
Source text: as §1, §2, §3, §4, §5, §6, §7, §8

With Cc1ccc2c(c1)[C@H](Nc1nc(N)nc([C@@H](C)F)n1)[C@@H](C)C2 (stereo in doubt) [(A21)/(A22), indaziflam] the “Herbicidal effect (%) on Digitaria sanguinalis” value ([1]; 12.5 g a.i./ha, 35 DAT) was 87%, the “Herbicidal effect (%) on Digitaria sanguinalis” value ([1]; 12.5 g a.i./ha, 56 DAT) was 63% and the “Herbicidal effect (%) on Digitaria sanguinalis” value ([1]; 12.5 g a.i./ha, 68 DAT) was 73%. For the same compound, the “Herbicidal effect (%) on Digitaria sanguinalis” value ([1]; 12.5 g a.i./ha, 107 DAT) was 70%, the “Herbicidal effect (%) on Digitaria sanguinalis” value ([1]; 12.5 g a.i./ha, 138 DAT) was 43% and the “Herbicidal effect (%) on Digitaria sanguinalis” value ([1]; 12.5 g a.i./ha, 180 DAT) was 57%. For the same compound, the “Herbicidal effect (%) on Digitaria sanguinalis” value ([1]; 25.0 g a.i./ha, 35 DAT) was 95%, the “Herbicidal effect (%) on Digitaria sanguinalis” value ([1]; 25.0 g a.i./ha, 56 DAT) was 96% and the “Herbicidal effect (%) on Digitaria sanguinalis” value ([1]; 25.0 g a.i./ha, 68 DAT) was 98%. For the same compound, the “Herbicidal effect (%) on Digitaria sanguinalis” value ([1]; 25.0 g a.i./ha, 107 DAT) was 97%, the “Herbicidal effect (%) on Digitaria sanguinalis” value ([1]; 25.0 g a.i./ha, 138 DAT) was 93% and the “Herbicidal effect (%) on Digitaria sanguinalis” value ([1]; 25.0 g a.i./ha, 180 DAT) was 93%. For the same compound, the “Herbicidal effect (%) on Digitaria sanguinalis” value ([1]; 50.0 g a.i./ha, 35 DAT) was 97%, the “Herbicidal effect (%) on Digitaria sanguinalis” value ([1]; 50.0 g a.i./ha, 56 DAT) was 98% and the “Herbicidal effect (%) on Digitaria sanguinalis” value ([1]; 50.0 g a.i./ha, 68 DAT) was 99%. For the same compound, the “Herbicidal effect (%) on Digitaria sanguinalis” value ([1]; 50.0 g a.i./ha, 107 DAT) was 99%, the “Herbicidal effect (%) on Digitaria sanguinalis” value ([1]; 50.0 g a.i./ha, 138 DAT) was 100% and the “Herbicidal effect (%) on Digitaria sanguinalis” value ([1]; 50.0 g a.i./ha, 180 DAT) was 100%. The “Herbicidal effect (%) on Digitaria sanguinalis” value ([1]; 100.0 g a.i./ha, 35 DAT) was 96%, the “Herbicidal effect (%) on Digitaria sanguinalis” value ([1]; 100.0 g a.i./ha, 56 DAT) was 99% and the “Herbicidal effect (%) on Digitaria sanguinalis” value ([1]; 100.0 g a.i./ha, 68 DAT) was 99%. The “Herbicidal effect (%) on Digitaria sanguinalis” value ([1]; 100.0 g a.i./ha, 107 DAT) was 99%, the “Herbicidal effect (%) on Digitaria sanguinalis” value ([1]; 100.0 g a.i./ha, 138 DAT) was 99% and the “Herbicidal effect (%) on Digitaria sanguinalis” value ([1]; 100.0 g a.i./ha, 180 DAT) was 99%. For the same compound, the “Herbicidal effect (%) on Digitaria sanguinalis” value ([1]; 200.0 g a.i./ha, 35 DAT) was 98%, the “Herbicidal effect (%) on Digitaria sanguinalis” value ([1]; 200.0 g a.i./ha, 56 DAT) was 99% and the “Herbicidal effect (%) on Digitaria sanguinalis” value ([1]; 200.0 g a.i./ha, 68 DAT) was 99%. The “Herbicidal effect (%) on Digitaria sanguinalis” value ([1]; 200.0 g a.i./ha, 107 DAT) was 100%, the “Herbicidal effect (%) on Digitaria sanguinalis” value ([1]; 200.0 g a.i./ha, 138 DAT) was 100% and the “Herbicidal effect (%) on Digitaria sanguinalis” value ([1]; 200.0 g a.i./ha, 180 DAT) was 100%. For the same compound, the “Herbicidal effect (%) on Poa annua” value ([2]; 12.5 g a.i./ha) was 70%, the “Herbicidal effect (%) on Poa annua” value ([2]; 25.0 g a.i./ha) was 97% and the “Herbicidal effect (%) on Poa annua” value ([2]; 50.0 g a.i./ha) was 100%. For the same compound, the “Herbicidal effect (%) on Poa annua” value ([2]; 100.0 g a.i./ha) was 100% and the “Herbicidal effect (%) on Poa annua” value ([2]; 200.0 g a.i./ha) was 100%.
